Reference: patent publication US20090075320A1, “Method for screening an enhancer or a masker of salty taste” (priority 2006, published 2009)

Target: T1, hENaC channel (Homo sapiens, UniProt P37088+P51168+P51170, A314G/A350T/D375G/F339S/S458R/Y369S)
T1 sequence (P37088 1-669): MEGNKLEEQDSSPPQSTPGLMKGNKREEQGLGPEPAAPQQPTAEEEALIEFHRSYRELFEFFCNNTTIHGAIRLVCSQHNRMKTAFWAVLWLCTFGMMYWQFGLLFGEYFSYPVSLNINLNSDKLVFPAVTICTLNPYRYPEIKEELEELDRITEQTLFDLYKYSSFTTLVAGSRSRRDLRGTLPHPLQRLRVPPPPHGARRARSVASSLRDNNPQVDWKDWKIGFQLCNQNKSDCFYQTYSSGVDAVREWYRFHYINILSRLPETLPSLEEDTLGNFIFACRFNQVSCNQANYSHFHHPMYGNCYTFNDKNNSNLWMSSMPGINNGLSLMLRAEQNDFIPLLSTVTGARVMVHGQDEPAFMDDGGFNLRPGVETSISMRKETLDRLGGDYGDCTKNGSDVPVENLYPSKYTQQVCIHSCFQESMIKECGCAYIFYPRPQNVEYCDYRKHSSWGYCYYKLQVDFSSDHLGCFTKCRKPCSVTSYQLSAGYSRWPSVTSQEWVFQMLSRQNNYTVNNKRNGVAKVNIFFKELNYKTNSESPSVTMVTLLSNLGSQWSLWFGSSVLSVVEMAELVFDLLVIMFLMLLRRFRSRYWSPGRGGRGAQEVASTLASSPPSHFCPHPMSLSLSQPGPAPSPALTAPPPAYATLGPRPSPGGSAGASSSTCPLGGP
T1 sequence (P51168 1-640 A314G): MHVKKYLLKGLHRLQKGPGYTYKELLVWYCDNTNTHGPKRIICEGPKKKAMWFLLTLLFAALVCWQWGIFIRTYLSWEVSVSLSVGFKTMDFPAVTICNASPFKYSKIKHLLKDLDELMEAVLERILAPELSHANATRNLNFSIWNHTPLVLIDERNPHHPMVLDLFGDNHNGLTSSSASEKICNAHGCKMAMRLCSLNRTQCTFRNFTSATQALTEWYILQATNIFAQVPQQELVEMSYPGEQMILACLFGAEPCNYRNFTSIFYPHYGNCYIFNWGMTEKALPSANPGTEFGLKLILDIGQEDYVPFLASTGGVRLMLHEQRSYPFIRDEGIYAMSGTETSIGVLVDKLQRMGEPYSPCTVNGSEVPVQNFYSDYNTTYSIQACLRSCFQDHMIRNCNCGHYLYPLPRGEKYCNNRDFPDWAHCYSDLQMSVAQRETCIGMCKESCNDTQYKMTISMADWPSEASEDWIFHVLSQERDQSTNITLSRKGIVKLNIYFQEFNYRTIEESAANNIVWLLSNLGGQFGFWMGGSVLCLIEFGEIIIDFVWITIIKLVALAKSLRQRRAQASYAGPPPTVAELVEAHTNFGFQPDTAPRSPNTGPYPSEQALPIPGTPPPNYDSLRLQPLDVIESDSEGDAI
T1 sequence (P51170 1-649 F339S/A350T/Y369S/D375G/S458R): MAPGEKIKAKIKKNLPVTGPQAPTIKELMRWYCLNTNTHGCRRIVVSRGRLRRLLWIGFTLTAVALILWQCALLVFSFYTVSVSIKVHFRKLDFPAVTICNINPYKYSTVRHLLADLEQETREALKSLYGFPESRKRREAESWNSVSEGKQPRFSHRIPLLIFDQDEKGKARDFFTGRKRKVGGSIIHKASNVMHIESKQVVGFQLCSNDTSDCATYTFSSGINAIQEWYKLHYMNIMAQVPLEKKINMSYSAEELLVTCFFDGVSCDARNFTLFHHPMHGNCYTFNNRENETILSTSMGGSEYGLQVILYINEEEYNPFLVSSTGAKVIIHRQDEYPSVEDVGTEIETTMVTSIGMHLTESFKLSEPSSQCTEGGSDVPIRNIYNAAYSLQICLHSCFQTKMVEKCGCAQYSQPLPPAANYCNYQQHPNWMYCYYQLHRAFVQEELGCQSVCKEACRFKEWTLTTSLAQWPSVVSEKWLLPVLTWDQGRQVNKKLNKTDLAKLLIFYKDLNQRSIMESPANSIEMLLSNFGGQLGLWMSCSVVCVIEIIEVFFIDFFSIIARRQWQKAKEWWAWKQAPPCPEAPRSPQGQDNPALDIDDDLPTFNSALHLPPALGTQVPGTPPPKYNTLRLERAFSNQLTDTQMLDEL
Assay: Primary screen MP assay (membrane potential dye): dose-response curves for inhibition by hENaC blockers
Type: cell-based
Settings: HEK293 Flp-In T-Rex hENaC cells (alpha, beta, gamma; pUR8191), loaded with MP-Blue dye for 1 hr, Flexstation; FIG. 4
Experimental: FIG. 4. Dose-response curve for different concentrations of the hENaC blockers amiloride, benzamil and phenamil (in M). Cells were loaded with MP-Blue dye for 1 hr and assayed in the Flexstation.
HEK293 Flp-In T-Rex hENaC cells were grown to about 80% confluency and dissociated from the culture dish with trypsin/EDTA for 1-5 minutes at 37° C. Dissociated cells were taken up in a concentration between 1×10^5 and 1×10^6 cells/ml in DMEM/Tet-free FCS/blasticidin/hygromycin medium. 100 μL of cells were added per well in a poly-L-lysine coated black well clear bottom 96-wells plate. The cells were grown overnight and then induced by addition of 100 μl DMEM/Tet-free FCS/blasticidin/hygromycin medium with doxycyclin (final conc. 0.25 μg/ml). Alternatively, in some wells amiloride was added to inhibit hENaC channel activity during induction.
After 20 to 48 hrs the medium was removed, cells were washed with buffer and subsequently loaded with MP-Blue (cat# R8042) or MP-Red (cat# R8123) dye (from Molecular Devices) according to the manufacturer's instructions for 1 hr at 37° C. The plates were subsequently loaded into the Flexstation II for fluorescence measurements. Compounds were added to the wells in different concentrations after a baseline measurement of 30 sec. […] The fluorescence values were normalized on the average value of the first five time points. […]

Compound | inhibition of the hENaC channel (rank order from dose-response curves)
N=C(N)NC(=O)c1nc(Cl)c(N)nc1N [amiloride] | followed by benzamil and amiloride
NC(=Nc1ccccc1)NC(=O)c1nc(Cl)c(N)nc1N [phenamil] | the best compound for inhibition
